# Legend:
# [1] = system: severe arthritis caused by injuries in a horse; assay: Treatment of osteoarthritis caused by injuries in a horse (Example 3, case report); type: in vivo; settings: 30-year-old mare, previous treatments given together
# Description: Joint Response was tried as a last resort.
# [2] = system: arthritis in laboratory rats exposed to Freund's adjuvant; settings: cited from earlier work
# [3] = system: arthritis in Swiss albino mice; settings: cited from earlier work
Compound,alleviation of discomfort by previous treatments [1],protection from arthritis [2],protection from arthritis [3]
CCCCC1C(=O)N(c2ccccc2)N(c2ccccc2)C1=O [Butte],not working nearly well enough,–,–
"CCCC/C=C\CCCCCCCC(=O)OCCCCCCCCCCCCCCCC [CM, cetyl myristoleate]",–,protected,protected
"N[C@H]1C(O)O[C@H](CO)[C@@H](O)[C@@H]1O (some centres unmarked) [Glucosamine, glucosamine]",not working nearly well enough,–,–
"CS(C)(=O)=O [MSM, methylsulfonylmethane]",not working nearly well enough,–,–

# — patent US8258184B1, “Use of vegetable butter-based cetyl myristoleate for treating osteoarthritis and other musculoskeletal disease conditions and injuries” (Botanoceuticals, Inc., priority 2002, dated 2012)
